We go through eight compounds from patent publication US20060211740A1, “Novel compounds” (priority 2003, published 2006).

The structures appear in SMILES notation. “And” between values parts separate entries of the source, which are not always exact repeats. Equal values may be shown once. Where a name gives a salt, the structure may show the parent alone.

Assay [1] has as its target Asp-2 (Homo sapiens, UniProt P56817). Kind of assay: Asp-2 Inhibitory Assay. The assay is classed as biochemical. The settings on record: FAM-[SEVNLDAEFK]-TAMRA substrate, pH 4.5, 1 h at room temperature, fluorescence; read-out: inhibition (Asp2), Assay (I). As for the experimental part: (I) Asp-2 Inhibitory Assay
(§1) For each compound being assayed, in a 384 well plate, is added:—
(§2) a) 1 μl of a DMSO solution of the test compound (IC50 curve uses ten 1 in 2 serial dilutions from 500 μM).
This is prepared by diluting 2 ml of a 2 mM DMSO solution of the substrate into 400 ml of buffer (100 mM Sodium acetate pH=4.5, 1 l Milli-Q water, 0.06% Triton X-100 (0.5 ml/l), pH adjusted to 4.5 using glacial acetic acid). Aminomethyl fluorescein (FAM) and tetramethyl rhodamine (TAMRA) are fluorescent molecules which co-operate to emit fluorescence at 535 nm upon cleavage of the […] peptide.
c) 10 μl enzyme solution. This is prepared by diluting 16 ml of a 500 nM enzyme solution into 384 ml of buffer (prepared as above).
(§3) Blank wells (enzyme solution replaced by buffer) are included as controls on each plate. Wells are incubated for 1 h at room temperature and fluorescence read using a Tecan Ultra Fluorimeter/Spectrophotometer (485 nm excitation, 535 nm emission).

In assay [2] the target is Cathepsin D (Homo sapiens, UniProt P07339). Kind of assay: Cathepsin D Inhibitory Assay. The assay is classed as biochemical. Conditions: FAM-[SEVNLDAEFK]-TAMRA substrate, pH 4.5, 1 h at room temperature, fluorescence; read-out: inhibition (CatD), Assay (II). As for the experimental part: (II) Cathepsin D Inhibitory Assay
as §1, §2
This is prepared by diluting 2 ml of a 2 mM DMSO solution of the substrate into 400 ml of buffer (100 mM Sodium acetate pH=4.5, 1 l Milli-Q water, 0.06% Triton X-100 (0.5 ml/l), pH adjusted to 4.5 using glacial acetic add).
c) 10 μl enzyme solution. This is prepared by diluting 1.6 ml of a 200 unit/ml (in 10 mM HCl) enzyme solution into 398.4 ml of buffer (prepared as above).
as §3

Asp-2, sequence (P56817 46-501): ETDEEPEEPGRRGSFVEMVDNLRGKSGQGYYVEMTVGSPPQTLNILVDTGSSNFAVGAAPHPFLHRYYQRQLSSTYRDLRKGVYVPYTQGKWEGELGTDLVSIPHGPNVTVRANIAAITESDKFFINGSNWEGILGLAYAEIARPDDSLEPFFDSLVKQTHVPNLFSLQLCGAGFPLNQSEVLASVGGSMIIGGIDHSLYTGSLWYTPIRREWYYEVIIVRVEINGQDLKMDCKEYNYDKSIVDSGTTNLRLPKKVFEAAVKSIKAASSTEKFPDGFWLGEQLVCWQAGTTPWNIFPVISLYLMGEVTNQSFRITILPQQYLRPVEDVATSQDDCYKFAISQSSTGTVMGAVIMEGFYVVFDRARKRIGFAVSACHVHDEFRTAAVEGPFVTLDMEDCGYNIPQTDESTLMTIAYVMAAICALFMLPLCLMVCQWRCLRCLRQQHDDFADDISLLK
Cathepsin D, sequence (P07339 65-412, species assumed): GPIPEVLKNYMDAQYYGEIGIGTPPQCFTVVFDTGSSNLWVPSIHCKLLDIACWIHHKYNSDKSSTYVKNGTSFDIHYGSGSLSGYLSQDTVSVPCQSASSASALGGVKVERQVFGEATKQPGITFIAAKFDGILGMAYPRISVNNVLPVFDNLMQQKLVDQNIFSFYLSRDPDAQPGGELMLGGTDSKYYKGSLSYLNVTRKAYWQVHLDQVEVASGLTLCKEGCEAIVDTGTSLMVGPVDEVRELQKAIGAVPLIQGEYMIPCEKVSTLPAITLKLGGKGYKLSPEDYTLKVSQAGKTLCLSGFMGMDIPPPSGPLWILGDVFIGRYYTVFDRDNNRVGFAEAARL

Take `C#Cc1cc(C(=O)N[C@@H](Cc2ccccc2)[C@H](O)CNCc2cccc(C(F)(F)F)c2)cc(N(c2ccccc2)S(C)(=O)=O)c1` [Example E46, N-[(1S,2R)-1-Benzyl-2-hydroxy-3-(3-trifluoromethyl-benzylamino)-propyl]-ethynyl-(methanesulfonyl-phenyl-amino)-benzamide]: the IC50 lay in the range of 1 to 100 nM in assay [1] and 200 to 2500 nM in assay [2].

On to `CS(=O)(=O)N(c1cccc(C#N)c1)c1cc(C(=O)N[C@@H](Cc2ccccc2)[C@H](O)CNCc2cccc(C(F)(F)F)c2)cc(N2CCCC2=O)c1` [Example E77, formate salt], for which the IC50 in assay [1] was 1 to 100 nM and 1 to 10 nM; in assay [2], 200 to 2500 nM and 400 to 1000 nM.

Turning to `CS(=O)(=O)N(c1ccccc1)c1cc(C(=O)N[C@@H](Cc2ccccc2)[C@H](O)CNCc2cccc(OC(F)(F)F)c2)cc(N2CCCC2=O)c1` [Example E55, formate salt], the IC50 is 1 to 100 nM and 1 to 10 nM in assay [1]; 200 to 2500 nM and 400 to 1000 nM in assay [2].

`CCSc1cc(C(=O)N[C@@H](Cc2ccccc2)[C@H](O)CNCc2cccc(C(F)(F)F)c2)cc(N(c2ccccc2)S(C)(=O)=O)c1` [Example E60]: the IC50 in assay [1] is 1 to 100 nM and 1 to 10 nM; in assay [2], 200 to 2500 nM and 400 to 1000 nM.

For the compound `C[C@H](NC[C@@H](O)[C@H](Cc1ccccc1)NC(=O)c1cc(N2CCCC2=O)cc(N(c2ccccc2)S(C)(=O)=O)c1)C(=O)NC1CCCCC1` [Example E41], the IC50 in assay [1] was 1 to 100 nM and 1 to 10 nM; in assay [2], 200 to 2500 nM and 400 to 1000 nM.

As to `CS(=O)(=O)N(c1cccc(C#N)c1)c1cccc(C(=O)N[C@@H](Cc2ccccc2)[C@H](O)CNCc2cccc(C(F)(F)F)c2)c1` [Example E17, N-[(1S,2R)-1-Benzyl-2-hydroxy-3-(3-trifluoromethyl-benzylamino)-propyl]-[(3-cyano-phenyl)-methanesulfonyl-amino]-benzamide], the IC50 in assay [1] fell in the range of 1 to 100 nM; in assay [2] it was 200 to 2500 nM.

For `C=C(C)c1cc(C(=O)N[C@@H](Cc2ccccc2)[C@H](O)CNCc2cccc(C(F)(F)F)c2)cc(N(c2ccccc2)S(C)(=O)=O)c1` [Example E83, N-[(1S,2R)-Benzyl-hydroxy-3-(3-trifluoromethyl-benzylamino)-propyl]-3-isopropenyl-5-(methanesulfonyl-phenyl-amino)-benzamide], the IC50 was 1 to 100 nM in assay [1] and 200 to 2500 nM in assay [2].

Take `CS(=O)(=O)N(c1ccccc1)c1cccc(C(=O)N[C@@H](Cc2ccccc2)[C@H](O)CNCc2cccc(C(F)(F)F)c2)c1F` [Example E56, formate salt]: the IC50 is 1 to 100 nM in assay [1] and 200 to 2500 nM in assay [2].
